The numbers were not newly measured in patent publication US20140199404A1, “METHOD FOR TREATING CANCER BASED ON LEVEL OF A NUCLEOSIDE TRANSPORTER” (ABRAXIS BIOSCIENCE, LLC, priority 2013, published 2014), which cites them from elsewhere.

For data set [1], the system named is locally advanced pancreatic cancer. To be noted: patients with locally advanced pancreatic cancer.
For a further data set, the system named is pancreatic cancer. To be noted: Moore et al. 2007.

Take `O=c1[nH]cc(F)c(=O)[nH]1` [5-FU, 5-fluororuracil]: in data set [1], the median overall survival is on record as 4.2 months and the “median time to disease progression” value was 0.9 months.
For `Nc1ccn([C@@H]2O[C@H](CO)[C@@H](O)C2(F)F)c(=O)n1` [gemcitabine], in data set [1], the median overall survival is recorded as 5.7 months and the “median time to disease progression” value is listed as 2.1 months. Moreover, in the data set with pancreatic cancer, the median overall survival is given as 6.0 months and the “median progression free survival” value is recorded as 3.5 months.
